One compound from ChEMBL document CHEMBL1151947, “Synthesis, potency, and in vivo evaluation of 2-piperazin-1-ylquinoline analogues as dual serotonin reuptake inhibitors and serotonin 5-HT1A receptor antagonists” (J Med Chem, 2009) can be followed below.

For data set [1], the target named is T1, 5-hydroxytryptamine receptor 1A (Homo sapiens) (UniProt P08908).
T1 sequence (whole entry): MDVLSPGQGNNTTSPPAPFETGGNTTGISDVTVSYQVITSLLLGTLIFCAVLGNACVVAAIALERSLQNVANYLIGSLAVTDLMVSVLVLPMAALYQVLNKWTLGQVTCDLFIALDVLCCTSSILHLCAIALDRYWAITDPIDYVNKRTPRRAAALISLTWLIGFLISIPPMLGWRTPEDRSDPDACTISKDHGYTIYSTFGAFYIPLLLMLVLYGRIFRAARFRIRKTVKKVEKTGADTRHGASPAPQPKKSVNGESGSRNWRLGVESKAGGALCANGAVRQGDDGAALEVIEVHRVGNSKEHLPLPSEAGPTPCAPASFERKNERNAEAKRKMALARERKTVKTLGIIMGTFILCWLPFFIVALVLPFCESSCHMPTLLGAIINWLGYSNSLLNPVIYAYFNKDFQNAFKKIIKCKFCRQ
In words: Antagonist activity at human 5HT1A receptor expressed in CHO cells assessed as inhibition of [35S]GTPgammaS binding relative to control. Type of data set: functional, cell-based. (In general: GTPγS resists hydrolysis and so accumulates on activated G proteins.)

The test system of data set [2] is Rattus norvegicus. In words: Initial plasma concentration in rat at 1 mg/kg, iv. Type of data set: ADME, organism-based. Further details: dose 1 mg/kg, route intravenous; call rule not given here. Conditions: in vivo.
The nature of data set [3]: Elimination half life in rat at 1 mg/kg, iv. Further details: dose 1 mg/kg, route intravenous. It counts as ADME, organism-based. Conditions: in vivo, read-out: beta t1/2 (converted).
The subject of data set [4] is Rattus norvegicus. In words: AUC in rat at 1 mg/kg, iv. Type of data set: ADME, organism-based, Plasma. Further details: dose 1 mg/kg, route intravenous. To be noted: in vivo.
Data set [5] in a line: Cmax in rat at 3 mg/kg, po. It counts as ADME, organism-based. Further details: dose 3 mg/kg, route oral. Conditions: in vivo.
Data set [6] can be described thus: Elimination half life in rat at 3 mg/kg, po. It counts as ADME, organism-based. The arrangement: dose 3 mg/kg, route oral. To be noted: in vivo, read-out: beta t1/2 (converted).
The nature of data set [7]: Cmax in rat at 10 mg/kg, po. Type of data set: ADME, organism-based. The arrangement: dose 10 mg/kg, route oral. Conditions: in vivo.
Data set [8] in a line: Tmax in rat at 10 mg/kg, po. The arrangement: dose 10 mg/kg, route oral. Type of data set: ADME, organism-based. Conditions: in vivo.
The nature of data set [9]: Elimination half life in rat at 10 mg/kg, po. Type of data set: ADME, organism-based. The arrangement: dose 10 mg/kg, route oral. Conditions: in vivo, read-out: beta t1/2 (converted).
The nature of data set [10]: Oral bioavailability in rat at 10 mg/kg. Type of data set: ADME, organism-based. Conditions: in vivo.
The subject of data set [11] is Rattus norvegicus. In words: Antidepressant activity in po dosed rat assessed as increase in extracellular 5HT level in dorsal lateral frontal cortex after 3 hrs by microdialysis assay. Type of data set: functional, organism-based.
The next data set addresses T2, Cytochrome P450 2A6 (Homo sapiens, UniProt P11509).
T2 sequence (P11509 whole entry): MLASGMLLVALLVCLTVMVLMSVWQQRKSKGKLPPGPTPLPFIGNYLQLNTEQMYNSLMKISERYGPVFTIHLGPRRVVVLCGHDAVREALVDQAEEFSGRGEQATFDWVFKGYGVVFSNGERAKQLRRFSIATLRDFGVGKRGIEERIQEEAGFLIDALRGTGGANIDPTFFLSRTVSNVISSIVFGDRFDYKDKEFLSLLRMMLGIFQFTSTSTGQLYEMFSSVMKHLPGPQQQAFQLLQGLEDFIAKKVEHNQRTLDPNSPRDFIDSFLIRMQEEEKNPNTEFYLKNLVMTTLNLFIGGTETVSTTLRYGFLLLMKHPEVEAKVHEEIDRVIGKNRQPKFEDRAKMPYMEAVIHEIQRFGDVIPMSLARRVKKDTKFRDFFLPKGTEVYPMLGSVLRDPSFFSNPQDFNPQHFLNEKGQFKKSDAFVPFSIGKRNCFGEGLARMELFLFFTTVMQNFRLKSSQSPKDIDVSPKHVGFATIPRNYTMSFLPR
In words: Inhibition of CYP2A6 in human liver microsomes upto 100 uM. It counts as ADME, Microsome. A general note: Microsomes from liver hold many membrane-bound enzymes, among them those of drug oxidation.

A further data set concerns the target T3, Cytochrome P450 2C8 (Homo sapiens, UniProt P10632).
T3 sequence (P10632 whole entry): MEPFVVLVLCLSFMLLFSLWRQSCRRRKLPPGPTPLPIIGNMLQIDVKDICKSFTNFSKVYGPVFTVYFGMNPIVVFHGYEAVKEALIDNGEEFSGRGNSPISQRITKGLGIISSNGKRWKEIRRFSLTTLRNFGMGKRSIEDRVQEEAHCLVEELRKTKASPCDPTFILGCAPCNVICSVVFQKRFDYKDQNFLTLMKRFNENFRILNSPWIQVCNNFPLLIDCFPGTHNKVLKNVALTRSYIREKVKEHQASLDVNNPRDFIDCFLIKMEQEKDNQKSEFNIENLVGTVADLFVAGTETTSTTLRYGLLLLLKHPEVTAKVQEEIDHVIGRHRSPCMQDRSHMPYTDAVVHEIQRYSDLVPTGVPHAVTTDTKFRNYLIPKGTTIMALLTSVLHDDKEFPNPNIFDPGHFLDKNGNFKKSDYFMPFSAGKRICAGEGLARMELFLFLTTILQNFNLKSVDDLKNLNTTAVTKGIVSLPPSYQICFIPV
In words: Inhibition of CYP2C8 in human liver microsomes. Type of data set: ADME, Microsome.

For the next data set, the target named is Cytochrome P450 3A4 (Homo sapiens, UniProt P08684). In words: Inhibition of CYP3A4 in human liver microsomes. Type of data set: ADME, Microsome.
Chain of Cytochrome P450 3A4 (P08684 whole entry): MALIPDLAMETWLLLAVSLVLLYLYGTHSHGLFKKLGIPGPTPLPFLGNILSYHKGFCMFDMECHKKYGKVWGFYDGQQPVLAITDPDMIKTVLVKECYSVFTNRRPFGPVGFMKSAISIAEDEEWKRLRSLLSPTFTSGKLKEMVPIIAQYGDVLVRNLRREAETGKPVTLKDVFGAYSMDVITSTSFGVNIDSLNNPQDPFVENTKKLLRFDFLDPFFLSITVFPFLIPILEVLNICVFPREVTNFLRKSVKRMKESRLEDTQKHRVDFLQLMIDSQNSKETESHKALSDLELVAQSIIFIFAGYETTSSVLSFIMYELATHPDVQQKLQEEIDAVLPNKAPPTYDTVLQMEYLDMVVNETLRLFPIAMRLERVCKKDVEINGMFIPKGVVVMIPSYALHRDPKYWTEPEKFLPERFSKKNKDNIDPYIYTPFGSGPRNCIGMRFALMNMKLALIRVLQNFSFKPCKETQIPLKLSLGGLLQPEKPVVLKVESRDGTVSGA
Data set [12] deals with Rattus norvegicus. In words: Antidepressant like activity in sc dosed rat resident-intruder model assessed as effect on total behavior score administered 30 mins prior to test. It counts as functional. To be noted: read-out: ID50 (the source's name).
Data set [13] has as its target Sodium-dependent serotonin transporter (Rattus norvegicus, UniProt P31652).
Description: Displacement of [3H]paroxetine from 5HT transporter in rat cortical membrane

Where only a bound is given, the exact number is not on record here.

Chain of Sodium-dependent serotonin transporter (P31652 whole entry): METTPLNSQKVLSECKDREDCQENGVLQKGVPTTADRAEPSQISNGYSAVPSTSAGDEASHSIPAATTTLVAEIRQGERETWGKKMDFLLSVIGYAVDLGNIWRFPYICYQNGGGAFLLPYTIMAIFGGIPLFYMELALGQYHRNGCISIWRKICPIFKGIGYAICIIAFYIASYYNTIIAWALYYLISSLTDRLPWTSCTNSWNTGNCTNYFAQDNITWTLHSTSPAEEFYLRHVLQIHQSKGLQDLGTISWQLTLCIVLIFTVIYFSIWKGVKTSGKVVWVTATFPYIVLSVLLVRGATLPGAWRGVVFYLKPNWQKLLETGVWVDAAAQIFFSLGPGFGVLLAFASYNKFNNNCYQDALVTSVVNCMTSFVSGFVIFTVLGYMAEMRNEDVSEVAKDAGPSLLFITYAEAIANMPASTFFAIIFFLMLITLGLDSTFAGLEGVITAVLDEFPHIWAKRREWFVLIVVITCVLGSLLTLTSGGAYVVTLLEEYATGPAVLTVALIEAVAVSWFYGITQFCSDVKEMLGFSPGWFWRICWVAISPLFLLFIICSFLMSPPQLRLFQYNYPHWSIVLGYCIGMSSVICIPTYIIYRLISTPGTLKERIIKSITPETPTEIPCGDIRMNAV

What is called AUC is the area under the concentration-time curve, a measure of exposure. As usually defined, the Cmax is the peak of the concentration-time curve. In general, Tmax refers to the time at which the peak concentration occurs. What is called bioavailability is the share of a dose that reaches the circulation, judged against a reference dose that is usually intravenous. High values mean good availability, low ones poor availability. In general, IC50 refers to the concentration that inhibits the measured activity by half. Low values mean greater potency, high ones weaker potency. One may read the Ki as a dissociation constant, usually derived from enzyme kinetics or from competition with a known ligand. Higher therefore signals lower affinity. Regarding `Cc1ccc2c3c(ccc2n1)OC[C@H](CN1CCN(c2ccc4cc(C#N)ccc4n2)CC1)O3`, the Imax in [1] amounted to 88.6%. In the data set with Rattus norvegicus [2], this compound gave a C0 of 0.903 µg/mL. Further, the half-life was 4 h in [3], 3.8 h in data set [6] and 3.8 h in [9]. The same compound gave an AUC in the data set with Rattus norvegicus [4] of 1.268 µg·h/mL. In addition, the Cmax in data set [5] amounted to 0.456 µg/mL; in data set [7], 0.815 µg/mL. In data set [8], the time of peak concentration (Tmax) was 1 h. Besides, the bioavailability in data set [10] stood at 36%. Besides, the Activity result in the data set with Rattus norvegicus [11] is “Dose-dependent effect”. Moreover, the “inhibition (INH)” value at Cytochrome P450 2A6 is on record as “Not Active”. Further, the IC50 at Cytochrome P450 2C8 stood at 29 µM; against Cytochrome P450 3A4, 10 µM. Besides, the ED50 in the data set on Rattus norvegicus [12] is above 30 mg/kg. This compound yielded an inhibitory constant (Ki) in data set [13] of 0.0138 µM.
